According to patent US8580769B2, “Treatment of obesity, metabolic syndrome, and diabetes with protein kinase C inhibitors” (The United States of America as represented by the …, priority 2011, dated 2013):

What was measured:
FoxO1 = experiment: ser-256 phosphorylation of hepatic FoxO1 in wild type mice after a single ICAPP injection; assay type: in vivo, mouse; conditions: 1.5 mg/kg ICAPP s.c., basally and in response to insulin
Procedure: Western Analyses: Western analyses were conducted as described (Standaert et al., J. Biol. Chem. 279:24929-24934, 2004; Sajan et al., J. Lipid Res. 50:1133-1145, 2009; Sajan et al., Diabetologia 52:1197-1207, 2009; Farese et al., J. Clin. Invest. 117:2289-2301, 2007), using the following antibodies/antisera for immunodetection after resolution of lysate proteins by SDS-PAGE: rabbit polyclonal anti-IRS-1 antiserum (Upstate Cell Signaling); rabbit polyclonal anti-IRS-2 antiserum (Santa Cruz Technologies); rabbit polyclonal anti-PKC-ζ/λ antiserum (Santa Cruz Biotechnologies); rabbit polyclonal anti-PKC-ζ antiserum (gift of Dr. Todd Sacktor); mouse monoclonal anti-PKC-ι/ζ antibodies (Transduction Laboratories/BD, East Rutherford, N.J.); rabbit polyclonal anti-Akt1/2 antiserum (Upstate Cell Signaling); rabbit polyclonal anti-phospho-serine -473-Akt1/2 antiserum (New England BioLabs, Beverly, Mass.): rabbit polyclonal anti-phospho-threonine-410-[…]/-403-PKC-ι/λ antiserum (Upstate Cell Signaling); rabbit polyclonal anti-phospho-threonine-560-PKC-ζ/-555-PKC-ι/λ antiserum (Invitrogen); and anti-p65/RelA subunit of NFκB (Santa Cruz Biotechnologies). […]
Wild type mice were treated with 1.5 mg/kg ICAPP subcutaneously and after 2-30 hours, the mice were treated with 1 U/kg insulin 15 minutes before euthanasia. aPKC activity was determined as described in Example 1.

PKC-ζ = target: T1, PKC-ζ (Homo sapiens, UniProt Q05513); experiment: PKC-ζ inhibition; assay type: biochemical
T1 construct: purchased Biovision, Mountain View, Calif
T1 sequence (Q05513 1-592): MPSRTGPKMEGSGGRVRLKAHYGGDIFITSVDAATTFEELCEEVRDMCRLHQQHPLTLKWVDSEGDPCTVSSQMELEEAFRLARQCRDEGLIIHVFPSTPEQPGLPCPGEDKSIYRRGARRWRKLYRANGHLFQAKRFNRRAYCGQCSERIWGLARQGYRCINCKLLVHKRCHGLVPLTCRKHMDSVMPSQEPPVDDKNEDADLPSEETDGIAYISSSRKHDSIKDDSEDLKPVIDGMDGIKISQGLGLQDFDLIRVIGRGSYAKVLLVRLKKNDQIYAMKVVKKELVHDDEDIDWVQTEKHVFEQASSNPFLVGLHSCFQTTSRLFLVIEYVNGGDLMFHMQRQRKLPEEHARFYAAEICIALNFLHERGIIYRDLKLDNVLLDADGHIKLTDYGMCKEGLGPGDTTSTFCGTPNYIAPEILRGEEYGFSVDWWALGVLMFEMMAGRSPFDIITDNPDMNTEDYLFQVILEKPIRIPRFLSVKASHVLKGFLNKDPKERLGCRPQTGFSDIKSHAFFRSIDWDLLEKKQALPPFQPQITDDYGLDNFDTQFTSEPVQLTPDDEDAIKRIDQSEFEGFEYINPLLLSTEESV
Procedure: For assays of recombinant PKC-ι and PKC-ζ (10 ng/assay; Biovision, Mountain View, Calif.), […] phosphatidylinositol-3,4,5-(PO4)3 (PIP3; Matreya, Pleasant Gap, Pa.) ±1 ng phosphoinositide-dependent kinase-1 (PDK1; Upstate Cell Signaling) was added to maximally activate and thus better define aPKC activity.

Het-MλKO mice = experiment: clinical parameters in Het-MλKO mice (model of obesity/metabolic syndrome/T2DM); assay type: in vivo, mouse; conditions: ICAP-treated Mλ-Het KO mice (n = 12), 0.5 mg/kg body weight/day x 8 days s.c., mean ± SEM
[1] = test system: aPKC immunoprecipitated from tissues previously stimulated by insulin; experiment: fully-activated aPKC immunoprecipitated from insulin-stimulated tissues; assay type: biochemical
Procedure: aPKCι Assays: aPKC enzyme activity was measured as previously described (Standaert et al., J. Biol. Chem. 279:24929-24934, 2004; Sajan et al., J. Lipid Res. 50:1133-1145, 2009; Sajan et al., Diabetologia 52:1197-1207, 2009; Farese et al., J. Clin. Invest. 117:2289-2301, 2007). […] After incubation, ^32P-labeled substrate was trapped on P-81 filter paper and counted. […]

SMILES: NC(=O)c1ncn([C@@H]2C[C@H](COP(=O)(O)O)[C@@H](O)[C@H]2O)c1N [ICAPP, 1H-imidazole-4-carboxamide, 5-amino-1-[2,3-dihydroxy-4-[(phosphonooxy)methyl]cyclopentyl]-[1R-(1α,2β,3β,4α)]]
- ser-256 phosphorylation of hepatic FoxO1 (FoxO1): increased
- inhibition of PKC-ζ (PKC-ζ): not inhibited

SMILES: NC(=O)c1ncn([C@@H]2C[C@H](CO)[C@@H](O)[C@H]2O)c1N [ICAP, 1H-imidazole-4-carboxamide 5-amino-1-[2,3-dihydroxy-4-[hydroxymethyl]cyclopentyl]-[1R-(1α,2β,3β,4α)]]
- 10-min-post-insulin serum glucose (Het-MλKO mice): 91 ± 8 mg/dL

SMILES: O=C([O-])CC([S][Au])C(=O)[O-] (stereo not shown) [ATM, aurothiomalate, reference compound]
- inhibition of fully-activated aPKC immunoprecipitated from tissues previously stimulated by insulin [1]: did not inhibit
